This is an account of results in paper PMC4257840 (Journal of Medicinal Chemistry, 2014).

What all share (type): biochemical
Test [1] has as its target T1, human recombinant caspase 1 (Homo sapiens, UniProt P29466).
T1 construct: host or cells: E. coli
In words: Protease counter-screening: Caspase 1. As to the method: (§1) Appendix 7. Protease Counter -Screening
(§2) Protease counter-screeni ng was performed using the methods described below. Initial screening was conducted in duplicate using a single test substance concentration of 10 µ M .
(§3) Additional assays were conducted in replicate for selected pairin gs of test s ubstance and enz yme in order to enable the determination of IC50 values using conventional procedures.
(§4) Determination of K i was made using the Batch K i program (Biokin Ltd, Pullman, WA) to derive values from the Morrison equation: […]
(§5) Where [E ] is the active enz yme concentration, Kiapp is the apparent inhibition const ant, v 0 is the control velocit y in the absence of inhibitors, vb is the background velocity, v is the initial reaction velocit y in the presence of inhibitor, and I is the inhibitor concentration.Thence:
(§6) Where [S ] is the substrate concentration and KM is the Michealis constant. […]
(§7) by addition of 50 µM Ac-DEVD-AMC for another 60 min incubation period. The amount of AMC formed was determined fluorimetricall y (excitation 360 nm/emission 465 nm). […]
(§8) by addition of 25 µM Ac-LEH D-A FC for another 60 min incubation period. The amount of amino-4- trifluorometh ylcoumarin (AFC) formed determined fluorimetrically (400nm/ 510nm).
(§9) Cathepsin C: Cathepsin C from bovine spleen was used as the source of enz yme. […] T he amount of AMC product formed was read spectrofluorimetrically

Test [2] deals with T2, angiotensin converting enzyme from rabbit lung (Oryctolagus cuniculus, UniProt P12822).
T2 construct: rabbit lung; from tissue; host or cells: rabbit lung
T2 sequence (P12822 34-1310): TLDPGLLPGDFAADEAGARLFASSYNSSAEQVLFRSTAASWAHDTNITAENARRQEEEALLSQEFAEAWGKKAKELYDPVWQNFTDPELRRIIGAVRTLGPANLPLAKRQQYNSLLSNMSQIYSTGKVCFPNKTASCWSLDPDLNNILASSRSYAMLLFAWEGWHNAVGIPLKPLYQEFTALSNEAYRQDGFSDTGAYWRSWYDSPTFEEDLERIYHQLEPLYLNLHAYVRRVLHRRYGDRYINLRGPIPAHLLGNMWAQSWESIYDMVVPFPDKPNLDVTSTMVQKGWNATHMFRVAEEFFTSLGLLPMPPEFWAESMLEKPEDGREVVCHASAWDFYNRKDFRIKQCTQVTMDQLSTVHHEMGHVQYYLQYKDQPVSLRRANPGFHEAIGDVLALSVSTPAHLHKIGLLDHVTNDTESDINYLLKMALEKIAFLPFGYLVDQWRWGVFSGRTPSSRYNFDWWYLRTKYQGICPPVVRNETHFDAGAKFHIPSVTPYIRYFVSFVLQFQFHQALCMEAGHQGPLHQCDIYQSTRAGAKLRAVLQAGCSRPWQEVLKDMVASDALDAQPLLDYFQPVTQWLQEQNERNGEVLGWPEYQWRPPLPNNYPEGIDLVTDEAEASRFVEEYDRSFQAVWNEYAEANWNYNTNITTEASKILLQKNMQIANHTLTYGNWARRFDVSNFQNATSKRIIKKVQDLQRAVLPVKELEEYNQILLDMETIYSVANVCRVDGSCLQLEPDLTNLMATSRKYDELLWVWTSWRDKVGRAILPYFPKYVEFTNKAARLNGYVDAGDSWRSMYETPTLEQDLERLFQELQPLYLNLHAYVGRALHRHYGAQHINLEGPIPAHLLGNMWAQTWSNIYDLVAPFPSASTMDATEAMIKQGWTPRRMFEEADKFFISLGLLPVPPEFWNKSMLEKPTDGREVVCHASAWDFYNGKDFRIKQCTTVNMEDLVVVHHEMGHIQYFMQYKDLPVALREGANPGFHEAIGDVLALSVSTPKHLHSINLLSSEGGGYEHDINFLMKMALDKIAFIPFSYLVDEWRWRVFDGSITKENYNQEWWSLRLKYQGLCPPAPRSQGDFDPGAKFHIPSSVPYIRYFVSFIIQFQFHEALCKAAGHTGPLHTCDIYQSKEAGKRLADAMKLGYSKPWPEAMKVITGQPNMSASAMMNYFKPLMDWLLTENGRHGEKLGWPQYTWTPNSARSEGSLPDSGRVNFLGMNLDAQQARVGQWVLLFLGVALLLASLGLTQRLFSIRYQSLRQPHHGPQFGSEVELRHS
Put plainly: Protease counter-screening: Angiotensin converting enzyme. As to the method:
as §1, §2, §3, §4
MMP-9: Human recombinant MMP-9 proenz yme ex pressed in mammalian cells was activated with APMA for 60 min at 37 °C. […] The amount of MCA-P LG formed was read spectrofluorimetricall y at 340 nm/400 nm.
ADAM-17/TACE: Human recombinant ADAM-17 expressed in Sf21 insect cells was used as enz yme sour ce. […] T he amount of MCA-P LAQA formed w as read spectro fluorimetricall y at 340 nm/400 nm.
Angiotensin converting enzyme: Test compound or vehicle was pre- incubated in modified HEPES buffer pH 7.5 for 15 min at 25 °C with 31 mU/mL angiotensin converting enz yme from rabbit lung. […] The amount of substrate remaining was read spectrophotometricall y at 340 nm and used to deri ve the extent of reaction and its inhibition. […]
On the technique in general: A counterscreen serves to expose hits that act by an unwanted route or on another target.

Test [3] deals with T3, human recombinant caspase 3 (Homo sapiens, UniProt P42574).
T3 construct: host or cells: E. coli
T3 sequence (P42574 29-175 limits assumed): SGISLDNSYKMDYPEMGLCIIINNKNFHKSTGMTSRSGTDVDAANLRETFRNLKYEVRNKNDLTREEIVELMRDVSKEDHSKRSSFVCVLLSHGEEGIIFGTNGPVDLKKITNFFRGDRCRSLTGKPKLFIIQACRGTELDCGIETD
T3 sequence (P42574 176-277 limits assumed): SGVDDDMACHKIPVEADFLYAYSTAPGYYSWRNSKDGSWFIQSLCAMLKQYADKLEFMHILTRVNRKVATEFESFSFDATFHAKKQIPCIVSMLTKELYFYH
Put plainly: Protease counter-screening: Caspase 3. The procedure: as §1, §2, §3, §4, §5, §6, §7, §8, §9

Test [4] has as its system Human pancreatic trypsin. Put plainly: Protease counter-screening: Trypsin. Particulars: 10 µM. As to the method:
as §1, §2, §3, §4, §5
Where [S ] is the substrate concentration and KM is the Michealis constant.
Caspase 1: Activity against human recombinant caspase 1 expressed in E. coli was tested using Ac-YVAD- AMC as the substrate. Test compound or vehicle was pre- incubated with 600 […]
followed by excitation/emission at 485/535 nm. […]
AMC formation was read at 360 nm/465 nm.
Cathepsin L2: Human recombinant cathepsin L2 expressed in NS0 cells was used as the enzyme source. […] Form ation of AMC was measured at 360 […]
The amount of AMC formed was read spectrofluorimetricall y at 360 nm/465 nm. […]

T1 sequence (P29466 120-297 limits assumed): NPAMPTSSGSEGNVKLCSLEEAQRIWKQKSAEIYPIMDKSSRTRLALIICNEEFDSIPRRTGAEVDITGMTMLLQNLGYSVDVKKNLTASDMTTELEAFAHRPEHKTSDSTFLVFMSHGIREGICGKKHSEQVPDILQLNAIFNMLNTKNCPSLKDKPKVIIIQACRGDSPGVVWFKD
T1 sequence (P29466 317-404 limits assumed): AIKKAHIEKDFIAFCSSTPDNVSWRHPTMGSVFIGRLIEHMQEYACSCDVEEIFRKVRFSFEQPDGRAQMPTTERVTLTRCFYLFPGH

What is called inhibition is the drop in the measured response relative to a control, in per cent. Take `CC(C)[C@H](NC(=O)[C@H](C)NC(=O)[C@@H](NC(=O)c1ccccc1)C(C)(C)C)C(=O)C(=O)NCc1ccccc1` [Compound 38, N-{(S)-1-[(S)-1-((S)-1-Benzylaminooxalyl-2-methyl-propylcarbamoyl)-ethylcarbamoyl]-2,2-dimethyl-propyl}-benzamide]: the inhibition at 10 µM turned out to be 8% in test [1], 0% in test [2] and 1% in test [3]. In addition, the Trypsin inhibition in test [4] was determined as 9%.
